Data as given in patent US20230331781A1, “PAR4 DERIVED PEPTIDES, ANALOGS AND USES THEREOF” (Yissum Research Development Company of the Hebrew …, priority 2019, published 2023).
Entries after “also recorded” stand apart in the source; their conditions may differ. Numbered stars: 1 amine (or outer) side, 2 acyl side, 3 side chain; on linkers, the order of the positions; unused ones are H or OH. Bridge positions count the residues as written; N and C are the ends. Square brackets hold non-standard residues; d marks the D form. Ends that are not written are not given here. GlyBU(C4) = Gly building unit (N-alpha-functionalized Gly) carrying a C4 alkyl chain (n = m = 4), bridged through a urea group; CO = O=C([*:1])[*:2]

Experiments:
Lovo colon cancer cells = assay: Matrigel invasion of Lovo colon cancer cells after AYPGKF PAR4 activation; type: cell-based; conditions: PAR4 activated Lovo cells, 50 nM-150 μM, FIGS. 8B and 8C
Protocol: HEK293 cells were transiently transfected with flg-Par4 followed by AYPGKF PAR4 activation in the presence and absence of PAR4c (4-4) within the range of 50 nM-150 μM. IP of cell lysates following different periods of activation was carried out using anti flg abs. Detection of Akt was performed by anti Akt abs. β-actin serves as a control gene for loading. […] Matrigel invasion before and after AYPGKF PAR4 activation and in the presence and absence of PAR4 c(4-4) inhibitor in the activated PAR4 cells. A range between 50 nM-150 μM PAR4 c(4-4) inhibitor was applied. While ample Matrigel invasion is seen following PAR4 activation, this was attenuated in the presence of the inhibitor in all the concentrations used, similar to control prior to PAR4 activation. FIG. 8C—Histograms represent quantification of the cells/HPF invaded the Matrigel layer. Unpaired Student's t test was used. This experiment is a representative of three independent experiments performed in triplicates. FIG. 8D-8K show Wound-scratch migration assay. Lovo cancer cell-line was grown to confluence. Then, an equal wound scratch was introduced to Lovo cell monolayers. […]
When we analyzed the impact of Pc(4-4) on the capability of activated PAR4 in Lovo colon cancer cell line to invade Matrigel, a robust invasion is seen (FIG. 8B), inhibited in the presence of Pc(4-4). […]

pY-EGFR = assay: PAR4 induced EGFR tyrosine phosphorylation, HEK293 cells co-transfected with flg-Par4 and gfp-egfr (Western blot); type: cell-based, human; conditions: HEK293 cells co-transfected with hPar4 and egfr; AYPGKF 200 μM; 100 μM; FIG. 13B
Protocol: FIG. 13A—Activation of PAR4 induces phosphorylation of EGFR. HEK293 cells were co-transfected with 0.4 μg of wt flg-Par4 and 0.8 μg of gfp-egfr. Cells were serum starved over night following AYPGKF PAR4 activation (200 μM) for 5-45 min. Detection by Western blot analyses of pY-EGFR and EGFR was performed using either anti-phospho tyrosine or anti EGFR antibodies respectively. PAR4 activation induces EGFR tyrosine phosphorylation within 15 min. FIG. 13B—Pc(4-4) inhibits EGFR phosphorylation. HEK293 cells were co-transfected with 0.8 μg of wt flg-Par4 and 1 μg of gfp-egfr. Cells were serum starved over night following AYPGKF PAR4 activation (200 μM) for 5-45 min in the presence and absence of PAR4 c(4-4) (100 μM). Detection by Western blot analyses of pEGFR and EGFR was performed using either anti-phospho tyrosine or anti EGFR antibodies (1:1000 dilution) respectively. […] FIG. 13C—PAR4 mutants F347L and D349A abolish pTyr-EGFR. HEK293 cells were transiently co-transfected with either flg-Par4 or flg-Par4D349A or flg-hPar4F347L with egfr1 plasmid. Cells were serum starved over night following AYPGKF PAR4 activation (200 μM) for 5-45 min. Detection by Western blot analyses of pY-EGFR and EGFR was performed using either anti-phospho tyrosine or anti-EGFR antibodies respectively. In the presence of flg-Par4 potent pTyr-EGFR1 is observed within 15′ and 30′ AYPGKF activation. […]

PAR2 and Akt = target: T1, PAR2 and Akt (Homo sapiens, UniProt P31749); assay: PAR2-Akt association, immunoprecipitation in HEK293 cells transfected with Par2 and SLIGKV activated; type: cell-based; conditions: HEK 293 cells, flag-hPar2, SLIGKV 200 μM; 150 μM, 1 hr prior to activation; FIG. 11
T1 construct: FLAG; expressed in transfected cells; host or cells: HEK293
Protocol: HEK293 cells were transiently transfected with Par2 followed by SLIGKV PAR2 activation in the presence and absence of PAR4 c(4-4) at 150 μM. IP of cell lysates following different time of activation was carried out using anti PAR2 abs. Detection of Akt was performed by anti Akt abs. β-actin serves as a control gene for loading.
Briefly, HEK 293 cells were transfected with 0.8 μg flag-hPar2 and serum starved overnight. PAR(4-4) in concentration of 150 μM was applied onto the cell monolayer for 1 hr prior to PAR2 activation (by the peptide SLIGKV—200 μM) for the indicated time periods (overall transfection period is 48 hrs).
The cells (HEK 293) were solubilized and lysed and protein cell lysates (400 μg) were used for immunoprecipitation analysis, as described in Example 4.

T1 sequence (P31749 whole entry): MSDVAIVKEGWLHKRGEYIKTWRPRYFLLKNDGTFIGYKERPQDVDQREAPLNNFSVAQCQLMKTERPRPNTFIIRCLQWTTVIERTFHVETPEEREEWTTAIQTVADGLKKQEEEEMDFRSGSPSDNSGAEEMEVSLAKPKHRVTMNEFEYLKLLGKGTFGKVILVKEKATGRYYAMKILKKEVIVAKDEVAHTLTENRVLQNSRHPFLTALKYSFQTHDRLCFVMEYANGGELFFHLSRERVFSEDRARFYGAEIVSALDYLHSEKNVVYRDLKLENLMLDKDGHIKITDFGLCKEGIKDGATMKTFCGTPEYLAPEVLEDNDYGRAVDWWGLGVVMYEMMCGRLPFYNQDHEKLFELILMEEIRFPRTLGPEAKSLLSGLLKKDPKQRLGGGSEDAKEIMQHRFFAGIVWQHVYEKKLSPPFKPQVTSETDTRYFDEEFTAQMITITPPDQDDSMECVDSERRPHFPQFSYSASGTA

## Pc(4-4): backbone cyclic analog of Formula I, m=n=4, ring size 30 atoms (S[GlyBU(C4)]EFRDK[GlyBU(C4)]; bridge 2-8 via CO; not fully specified; printed as SZ1EFRDKX3)
Lovo colon cancer cells
  inhibition of Matrigel invasion: inhibited
Lovo colon cancer cells; listed as PAR4 c(4-4)
  inhibition of Matrigel invasion: inhibits; also recorded: attenuated
pY-EGFR
  inhibition of PAR4 induced pY-EGFR: potent inhibition; also recorded: potently inhibited
PAR2 and Akt
  inhibition of PAR2-AKT association (IP): efficiently inhibited
